Patent US20150374779A1, “PHARMACOLOGIC TREATMENTS OF MENIÉRE'S DISEASE” (priority 2014, published 2015)
Where no end group is shown, it is not given here. [ ]: non-standard residue; d: D form.

Legend:
[1] = tested on: KOS strain of HSV-1; assay: single cycle herpes simplex virus infection assay (virus yield), ATRA-differentiated SH-SY5Y human neuroblastoma cells; assay type: cell-based; conditions: for activity at 40 µM: Human alphaherpesvirus 1, Neuroblastoma cell; for virus yield, % of control: DMSO = 100
Procedure: (§1) A single cycle herpes simplex virus infection assay was performed to determine the effect of JNK inhibitors on virus yield.
(§2) To prepare a 1 mM stock solution, 5.15 mg of D-JNKI-1 acetate was suspended in 1 ml of water, vortexed for 2 minutes, and sterilized by passage through a PES filter; 50 μL aliquots were prepared and stored at −20° C.
(§3) Human neuroblastoma cells (SH-SY5Y) were maintained in DMEM plus 10% fetal calf serum, 1 mM HEPES (Gibco) and 2 μg/ml gentamicin (Gibco). For differentiation, monolayers of cells were rinsed in PBS and then maintained in Neurobasal medium (Gibco) plus 2% B27 supplement and […] all-trans retinoic acid (ATRA). Primary fetal rat cortex cells were maintained in Neurobasal medium plus 2% B27, 2 mM glutamine and […] gentamicin.
(§4) Monolayers of SH-SY5Y human neuroblastoma cells differentiated by treatment with ATRA, or fetal rat cortex neurons were pre-treated with 10-20 μM D-JNKI-1, 40 μM SP600125 (Calbiochem), or DMSO (D2650, Sigma-Aldrich) vehicle control for 30 minutes prior to infection. Monolayers were infected with the KOS strain of HSV-1 at a multiplicity of infection (MOI) of 5 for 60 minutes under conditions of pre-treatment. Following the inoculation period, monolayers were incubated under pre-treatment conditions and harvested at 20 hours postinfection.
(§5) Cells and media were collected, and subjected to three rounds of freezing and thawing. Serial ten-fold dilutions were prepared and aliquots seeded in triplicate onto monolayers of Vero cells. Following a 60-minutes infection period, the inoculum was removed and replaced with medium containing 0.3% methyl cellulose. After 3 days, the overlay was removed and the cell monolayer stained with 0.8% crystal violet in 50% ethanol and plaques counted to determine virus yield. Results were presented as % of yield relative to control conditions (DMSO vehicle treatment).

[2] = tested on: KOS strain of HSV-1; assay: single cycle herpes simplex virus infection assay (virus yield), fetal rat cortex neurons; assay type: cell-based; conditions: for Pfu/culture: MOI 5, harvest 20 h postinfection, DMSO 1.33 × 10^6
Procedure: as §1, §2, §3, §4, §5

[3] = tested on: models of cochlear insult; conditions: acute noise trauma, acute labyrinthitis, aminoglycoside ototoxicity, bacterial infection, cochlear ischemia, cochlear implantation trauma; cited from earlier work
[4] = tested on: ASNHL-related tinnitus; assay: double-blind, randomized, placebo-controlled phase II study of AM-111 in ASNHL and associated tinnitus; assay type: in vivo, human; conditions: for Complete ASNHL-Related Tinnitus Remission in the Treated Ear, Frequency (%): mITT; for Number of Subjects with Tinnitus/Number of Subjects with Observation (%): Day 90, placebo 28/50 (56.0)
Procedure: A double-blind, randomized, placebo-controlled phase II study was conducted to evaluate the efficacy and safety of AM-111 in treating ASNHL and associated tinnitus. Eligible participants were aged 18 to 60 years and suffered from ASNHL (unilateral idiopathic sudden sensorineural hearing loss (ISSNHL), uni- or bilateral acute acoustic trauma (AAT)) with hearing loss of at least 30 dB and onset not more than 48 hours previously. The hearing loss was determined against a reference value: mean hearing threshold at the 3 most affected contiguous test frequencies (pure tone average, PTA) less corresponding mean hearing threshold of the contralateral ear (Plontke et al., 2007). In case of previously asymmetric hearing or bilateral ASNHL, thresholds from a previous audiogram or ISO-7029; 2000 norm values served as reference. The PTA frequencies determined at baseline remained fixed for all evaluations.
Exclusion criteria included history of Meniére's disease, autoimmune or radiation induced hearing […] loss, endolymphatic hydrops or fluctuating hearing loss, suspected perilymph fistula, membrane rupture or retrocochlear lesion, barotrauma, air-bone gap >20 dB in 3 contiguous frequencies, previous ASNHL incident within the past 6 weeks, and acute or chronic otitis media or otitis externa. Women who were breast feeding, pregnant or who planned a pregnancy during the study, or women of childbearing potential who declared being unwilling or unable to practice an effective method of […] contraception were excluded. Written informed consent was obtained from each patient prior to the performance of any study-specific procedures.
At baseline (Day 0), study participants were randomized to receive AM-111 (0.4 or 2.0 mg/mL) or placebo at a 2:1 ratio. The study consisted of a baseline assessment and 4 follow-up visits on Days 3, 7, 30, and 90. Baseline assessments included a general physical examination, vital signs, and a urine pregnancy test for women of childbearing age. At each study visit pure tone hearing thresholds, speech discrimination at 60 and 80 dB, and subjective tinnitus loudness were determined. Those patients reporting tinnitus were asked to rate its loudness “right now” on a numerical scale ranging from 0 (no tinnitus) to 10 (extremely loud).
Approximately 0.25 mL of the study drug was administered on Day 0 by intratympanic (i.t.) injection under local anesthesia through a small myringotomy with the patient's head placed in a position tilted 45° towards the unaffected ear. Patients remained in their reclined or supine position for approximately 30 minutes to allow for diffusion of the active substance into the cochlea. In case of bilateral AAT, only the worst affected ear was treated. Subjects whose PTA recovered <10 dB from baseline to Day 7 were given the option to receive oral prednisolone 50 mg (Ratiopharm, Ulm, Germany) b.i.d. for 5 days.
The sample size was determined based on an expected effect size of 0.6, a two-sided type I error rate of 5% and a statistical power of 80%.
Efficacy analyses were primarily performed on a modified “Intention to treat” (mITT) analysis set (treated patients with PTA measured on Day 3±1 or Day 7+4 days at most) and secondarily on the “Per Protocol” (PP) analysis set. The “Safety Population” analysis set included all patients who received an injection of the study medication. Random imputation was performed for missing PTA values at Days 7 and 30, and missing speech discrimination score (SDS) values at Day 7 based on the preceding value and the mean change observed in the respective treatment group (mITT set).
For continuous efficacy endpoints, analysis of covariance (ANCOVA) models were used including treatment group and initial frequency range as class effects, and baseline values of the respective endpoint as covariate. For the complete recovery rate, a logistic regression model was applied including treatment, initial frequency range, and baseline hearing loss as predictor variables. […]

[5] = tested on: wild type HSV-1 (KOS); assay: Western blot assay of accumulation of HSV-1 viral proteins (IE, E, L classes) in SH-SY5Y cells and rat fetal cortex neurons; assay type: cell-based; conditions: 10 μM; both SH-SY5Y cells and fetal cortex neurons; 8 h post infection
Procedure: Cell monolayers were pretreated either with DMSO (DM, vehicle control), or the JNK inhibitors D-JNKI-1 (AM, 10 μM) or SP600125 (SP, 40 μM), then infected in the presence of drug for 60 minutes and finally in the presence of drug until the time of harvest, 8 hours post infection. Western blot for tubulin served as a loading control.
The ability of JNK inhibitors to affect accumulation of viral proteins representative of the immediate-early (IE), early (E) or late (L) kinetic classes was evaluated by a Western blot assay.
Unless indicated otherwise, the same materials and methods were applied as for the experiment described under Example 1 and as laid out by Hargett et al., 2005.
Replicate monolayers of rat fetal cortex neurons or ATRA-differentiated SH-SY5Y cells were pre-treated with DMSO, D-JNKI-1 (10 μM) or […] (40 μM) for 30 minutes, and then infected with wild type HSV-1 (KOS) or ICP27 null mutant d27 at a multiplicity of infection (MOI) of 5, or mock-infected under pre-treatment conditions for 60 minutes. The inoculum was removed and incubation continued under the pretreatment conditions until the time of harvest. Whole cell lysates were prepared at 8 h post infection. Aliquots of lysates were separated on 12% gels by standard polyacrylamide gel electrophoresis (SDS-PAGE) procedures. […]

[6] = tested on: reovirus T3D; conditions: cited from earlier work

For `Oc1c2ccccc2c2c3c(cccc13)N=N2` [SP600125, reference compound], the Pfu/culture ([1]; First experiment, 40 μM, MOI 5, harvest 20 h postinfection, DMSO 3.5 × 10^5) was 2.57 × 10^5 Pfu/culture, the activity at 40 µM ([1]; read-out: virus yield, % of control, First experiment, 40 μM, DMSO = 100) was 72% and the activity at 40 µM ([1]; read-out: virus yield, % of control, Second experiment, 40 μM, DMSO = 100) was 20%. For the same compound, the Pfu/culture ([1]; Second experiment, 40 μM, DMSO 8.5 × 10^5) was 1.76 × 10^5 Pfu/culture, the Pfu/culture ([2]; 40 μM, fetal rat neurons) was 8.0 × 10^5 Pfu/culture and the activity at 40 µM ([2]; Human alphaherpesvirus 1, Neuron, 40 μM, fetal rat neurons, DMSO = 100, read-out: virus yield, % of control) was 60%.

In the case of “DQSRPVQPFLNLTTPRKPRPPRRRQRRKKRG (SEQ ID NO: 2) ([dD][dQ][dS][dR][dP][dV][dQ][dP][dF][dL][dN][dL][dT][dT][dP][dR][dK][dP][dR][dP][dP][dR][dR][dR][dQ][dR][dR][dK][dK][dR]G) [AM-111, 31-amino acid cell-permeable peptide, formulated in a biocompatible hyaluronic acid gel]”, the otoprotection [3] is given as “otoprotective”, the “Complete ASNHL-Related Tinnitus Remission in the Treated Ear, Frequency (%)” value (“Complete ASNHL-Related Tinnitus Remission … (%)” below) ([4]; All Subjects, 0.4 mg/mL, N = 50, Time point: Overall (90 days), placebo 28 (54.9%), p 0.151) is given as 35 (70.0%) and the “Complete ASNHL-Related Tinnitus Remission … (%)” value ([4]; All Subjects, 2.0 mg/mL, N = 56, Overall, placebo 28 (54.9%), p 1.000) is given as 31 (55.4%). The “Number of Subjects with Tinnitus/Number of Subjects with Observation (%)” value ([4]; 0.4 mg/mL i.t.) was 38.0%, the “Number of Subjects with Tinnitus/Number of Subjects with Observation (%)” value ([4]; 2.0 mg/mL i.t.) was 51.9% and the “Complete ASNHL-Related Tinnitus Remission … (%)” value ([4]; Mild to Moderate Subgroup, 0.4 mg/mL, N = 25, Overall, placebo 22 (78.6%), p 0.732) was 21 (84.0%). For the same compound, the “Complete ASNHL-Related Tinnitus Remission … (%)” value ([4]; Mild to Moderate Subgroup, 2.0 mg/mL, N = 27, Overall, placebo 22 (78.6%), p 0.245) was 17 (63.0%) and the “complete tinnitus remission, difference between AM-111 treatment groups and placebo” value ([4]; subgroup mild to moderate hearing loss, 0.4 and 2.0 mg/mL) was “no statistically significant differences”.

In the case of “DQSRPVQPFLNLTTPRKPRPPRRRQRRKKRG (SEQ ID NO: 2) (not fully specified (some residues); also: D-amino acids (positions not given here)) [D-JNKI-1]”, the “virus yield (in words)” value [1] is reported as “substantially reduced”, the “virus yield, % of control” value ([1]; First experiment, 10 μM) is reported as 37% and the Pfu/culture ([1]; First experiment, 10 μM, MOI 5, harvest 20 h postinfection, DMSO 3.5 × 10^5) is reported as 1.27 × 10^5 Pfu/culture. For the same compound, the Pfu/culture ([1]; Second experiment, 10 μM, DMSO 8.5 × 10^5) was 2.23 × 10^5 Pfu/culture, the “virus yield, % of control” value ([1]; Second experiment, 10 μM) was 26% and the Pfu/culture ([1]; Second experiment, 20 μM, DMSO 8.5 × 10^5) was 2.06 × 10^5 Pfu/culture. The “virus yield, % of control” value ([1]; Second experiment, 20 μM) was 24%, the “L (gC and Us11) protein accumulation” value [5] was “severe reduction” and the “accumulation of IE (ICP27) and E (ICP8) proteins” value [5] was “moderate reductions”. The “survival of intracerebrally infected mice” value ([6]; otherwise lethal challenge with T3D (100×50% lethal dose)) was “significantly prolonged survival”, the CNS injury ([6]; reovirus-infected mice) was “reduced CNS injury” and the c-Jun activation ([6]; reovirus-infected mice) was “reduced c-Jun activation”. The neuronal apoptosis ([6]; reovirus-infected mice) was “reduced neuronal apoptosis”, the “viral titer or viral antigen distribution” value ([6]; reovirus-infected mice) was “without altering” and the “virus yield, % of control” value ([2]; 10 μM, fetal rat neurons, DMSO = 100) was 12%. For the same compound, the Pfu/culture ([2]; 10 μM, fetal rat neurons) was 1.67 × 10^5 Pfu/culture and the “virus yield (in words)” value ([2]; rat cortex neurons) was “substantially reduced”.
